Data taken from patent US9370515B2, “Mixed lineage kinase inhibitors and method of treatments” (CALIFIA BIO, INC., priority 2013, dated 2016).
“Also recorded” adds a separate entry of the source. Read-outs that look alike come from different tables or passages of the source.

Experiments:
[1] = mice, Goodfellow et al 2013; cited from earlier work
[2] = test system: E18 primary hippocampal neurons; assay: Neuroprotection from HIV-1 Tat: hippocampal neurons in microfluidic chambers exposed to Tat-treated BV-2 microglia; assay type: cell-based; settings: BV-2 microglia treated with 1 μg/ml HIV-1 Tat; for Axonogenesis in the presence of Tat-activated microglia: compound 100 nM, FIG. 1 arrows
Experimental: FIG. 2 is a graph illustrating the quantification of axon elimination in the presence of HIV tat and certain inhibitors including compounds of the present disclosure. FIG. 3 is a graph illustrating the quantification of axon length in the presence of HIV tat and certain inhibitors including compounds of the present disclosure. Neuroprotection from HIV-1 Tat: E18 primary hippocampal neurons were plated in microfluidic chambers for 7 days in vitro (DIV). These chambers contain a cell body compartment contiguous with a series of 10 um wide, 3 um high, 400 um long microgrooves through which axons grow into a second compartment, fluidically isolated by a hydrostatic pressure gradient. […] Chambers that were exposed to BV-2 microglia treated with Tat alone had almost their entire axonal field destroyed (FIG. 1, brightfield image). […] FIGS. 2 and 3 show quantifications of axon elimination in the presence of HIV tat and Compounds 169, 67, 68 and 175.

diverse set of kinases [3] = molecular target: diverse set of kinases (Homo sapiens, UniProt P00519, T315I); assay: Protein kinase selectivity: IC50 against a diverse set of kinases, compared with URMC-099; assay type: biochemical; settings: kinase ABL1, read-out: IC50 ABL1(T31SI)
Source text: (§1) Protein Kinase Selectivity: MLK-3 inhibitors previously reported in the literature are somewhat promiscuous and inhibit a large number of serine and threonine protein kinases. Compounds of the present invention that show potent inhibition on MLK-3 are very specific for MLK family kinases. […] Journal of Medicinal Chemistry, 2013.

diverse set of kinases [4] = molecular target: T1, diverse set of kinases (Homo sapiens, UniProt P06213); assay: as above; assay type: biochemical; settings: kinase IR
T1 construct: IC50 IR; other: kinase IR
Source text: as §1

diverse set of kinases [5] = molecular target: T2, diverse set of kinases (Homo sapiens, UniProt O15111); assay: as above; assay type: biochemical; settings: kinase IKKa
T2 construct: IC50 IKKa; other: kinase IKKa
T2 sequence (O15111 1-745): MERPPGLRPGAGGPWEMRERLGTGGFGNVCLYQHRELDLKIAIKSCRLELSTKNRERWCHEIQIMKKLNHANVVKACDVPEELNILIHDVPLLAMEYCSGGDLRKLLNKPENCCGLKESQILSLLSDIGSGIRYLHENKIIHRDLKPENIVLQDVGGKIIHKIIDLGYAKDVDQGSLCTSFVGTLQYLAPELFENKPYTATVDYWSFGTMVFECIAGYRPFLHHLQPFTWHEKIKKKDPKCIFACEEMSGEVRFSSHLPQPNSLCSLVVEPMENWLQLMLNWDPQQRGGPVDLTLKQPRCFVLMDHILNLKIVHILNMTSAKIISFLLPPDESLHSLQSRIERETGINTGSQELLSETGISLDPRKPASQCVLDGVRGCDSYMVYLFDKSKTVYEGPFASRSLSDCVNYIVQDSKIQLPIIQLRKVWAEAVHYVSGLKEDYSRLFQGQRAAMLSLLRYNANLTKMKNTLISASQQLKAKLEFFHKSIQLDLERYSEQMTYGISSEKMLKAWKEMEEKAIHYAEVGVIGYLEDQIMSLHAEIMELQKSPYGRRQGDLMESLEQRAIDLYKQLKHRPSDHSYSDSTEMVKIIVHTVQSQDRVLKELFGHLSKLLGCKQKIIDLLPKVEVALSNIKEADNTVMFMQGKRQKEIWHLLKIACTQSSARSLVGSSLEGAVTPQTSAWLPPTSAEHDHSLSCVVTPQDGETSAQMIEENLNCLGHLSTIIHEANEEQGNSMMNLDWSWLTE
Source text: as §1

diverse set of kinases [6] = molecular target: T3, diverse set of kinases (Homo sapiens, UniProt P24941); assay: as above; assay type: biochemical; settings: kinase CDK2
T3 construct: IC50 CDK2; other: kinase CDK2
Source text: as §1

diverse set of kinases [7] = molecular target: T4, diverse set of kinases (Homo sapiens, UniProt O14920); assay: as above; assay type: biochemical; settings: kinase IKKb
T4 construct: IC50 IKKb; other: kinase IKKb
T4 sequence (O14920 1-756): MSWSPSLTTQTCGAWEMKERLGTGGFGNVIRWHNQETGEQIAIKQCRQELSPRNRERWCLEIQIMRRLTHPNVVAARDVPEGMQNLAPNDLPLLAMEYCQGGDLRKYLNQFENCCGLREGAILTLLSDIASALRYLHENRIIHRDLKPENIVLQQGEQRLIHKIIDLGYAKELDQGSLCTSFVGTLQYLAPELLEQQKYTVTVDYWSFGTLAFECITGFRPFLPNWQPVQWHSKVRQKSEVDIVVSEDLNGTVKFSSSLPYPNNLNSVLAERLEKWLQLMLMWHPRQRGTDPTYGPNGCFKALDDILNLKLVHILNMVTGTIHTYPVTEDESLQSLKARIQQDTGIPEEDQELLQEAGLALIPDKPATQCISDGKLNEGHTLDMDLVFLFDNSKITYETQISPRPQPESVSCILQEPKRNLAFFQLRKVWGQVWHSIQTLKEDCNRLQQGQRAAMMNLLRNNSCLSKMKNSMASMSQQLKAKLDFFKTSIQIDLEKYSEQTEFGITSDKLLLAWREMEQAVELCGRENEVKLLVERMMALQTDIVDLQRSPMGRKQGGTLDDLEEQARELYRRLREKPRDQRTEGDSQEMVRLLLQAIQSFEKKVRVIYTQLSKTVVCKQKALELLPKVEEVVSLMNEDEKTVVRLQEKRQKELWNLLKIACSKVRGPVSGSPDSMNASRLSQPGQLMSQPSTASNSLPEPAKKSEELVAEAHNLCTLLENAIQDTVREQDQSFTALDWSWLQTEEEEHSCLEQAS
Source text: as §1

MLK-3 = MLK-3 (Homo sapiens, UniProt Q16584); assay: Biochemical assay for the inhibition of kinase activity for MLK-3 (33P-ATP, HOTSPOT filter binding); settings: activated MLK-3 20 nM, ATP 50 μM, myelin basic protein 20 μM, 20 minutes room temperature
Outline: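 Activated MLK-3 (20 nM) with myelin basic protein (20 μM) in 20 mM Hepes pH 7.5, MgCl2, EGTA, Brij35, BSA, Na3VO4, DTT, 1% DMSO. Started with 33P-ATP at 50 μM ATP, 20 min at room temperature; % activity by HOTSPOT filter binding.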

[8] = Blood brain barrier penetration: standard murine pharmacokinetic model, plasma and brain concentrations; assay type: in vivo; settings: mouse; brain concentration 3 hrs after single IV injection 10 mg/kg, CL57 BL/6 mice; read-out: Cbrain 3 hrs
Source text: Compounds disclosed herein may be evaluated in pharmacokinetic assays and models to determine absorption, distribution, metabolism, and excretion parameters. The choice and tailoring of in vitro and ex vivo assays and in vivo models will vary according to the route of administration/formulation, indication under study, properties of test compounds, etc., as well as according to such factors as costs, availability of technology and resources, etc. Such parameters are well known in the fields of pharmacology and drug development. It is within the capacity of one skilled in the art to design and carry out, such work, or to outsource it to a capable third party.
Several compounds disclosed herein were evaluated in a standard murine pharmacokinetic model. […] For ease of analysis compounds were dissolved in 5% DMSO, 40% PEG400, and […] to yield a nominal concentration of 2 mg/mL for intravenous administration. Compounds were administered via a single intravenous (IV) injection in CL57 BL/6 mice at 10 mg/kg in DMSO/PEG400/Saline solution. Three mice in each group were used for blood and brain collection at each time point. Blood samples (300 μL) were collected via the retro-orbital vein predose and at 30, 60 and 180 minutes postdose. Blood samples were placed into tubes containing sodium heparin and centrifuged under refrigerated conditions at 8000 rpm for 6 minutes to separate plasma from the samples. The brain of each animal was collected after the final blood collection. The whole tissue was harvested, excised and rinsed by saline, dried by filter paper, and then placed into one tube per tissue per animal. All samples were stored at −20° C. until bioanalysis. Compound concentrations in plasma and brain homogenate were determined using a high performance liquid chromatography/mass spectrometry (HPLC/MS/MS) methods.

T1 sequence (P06213 whole entry): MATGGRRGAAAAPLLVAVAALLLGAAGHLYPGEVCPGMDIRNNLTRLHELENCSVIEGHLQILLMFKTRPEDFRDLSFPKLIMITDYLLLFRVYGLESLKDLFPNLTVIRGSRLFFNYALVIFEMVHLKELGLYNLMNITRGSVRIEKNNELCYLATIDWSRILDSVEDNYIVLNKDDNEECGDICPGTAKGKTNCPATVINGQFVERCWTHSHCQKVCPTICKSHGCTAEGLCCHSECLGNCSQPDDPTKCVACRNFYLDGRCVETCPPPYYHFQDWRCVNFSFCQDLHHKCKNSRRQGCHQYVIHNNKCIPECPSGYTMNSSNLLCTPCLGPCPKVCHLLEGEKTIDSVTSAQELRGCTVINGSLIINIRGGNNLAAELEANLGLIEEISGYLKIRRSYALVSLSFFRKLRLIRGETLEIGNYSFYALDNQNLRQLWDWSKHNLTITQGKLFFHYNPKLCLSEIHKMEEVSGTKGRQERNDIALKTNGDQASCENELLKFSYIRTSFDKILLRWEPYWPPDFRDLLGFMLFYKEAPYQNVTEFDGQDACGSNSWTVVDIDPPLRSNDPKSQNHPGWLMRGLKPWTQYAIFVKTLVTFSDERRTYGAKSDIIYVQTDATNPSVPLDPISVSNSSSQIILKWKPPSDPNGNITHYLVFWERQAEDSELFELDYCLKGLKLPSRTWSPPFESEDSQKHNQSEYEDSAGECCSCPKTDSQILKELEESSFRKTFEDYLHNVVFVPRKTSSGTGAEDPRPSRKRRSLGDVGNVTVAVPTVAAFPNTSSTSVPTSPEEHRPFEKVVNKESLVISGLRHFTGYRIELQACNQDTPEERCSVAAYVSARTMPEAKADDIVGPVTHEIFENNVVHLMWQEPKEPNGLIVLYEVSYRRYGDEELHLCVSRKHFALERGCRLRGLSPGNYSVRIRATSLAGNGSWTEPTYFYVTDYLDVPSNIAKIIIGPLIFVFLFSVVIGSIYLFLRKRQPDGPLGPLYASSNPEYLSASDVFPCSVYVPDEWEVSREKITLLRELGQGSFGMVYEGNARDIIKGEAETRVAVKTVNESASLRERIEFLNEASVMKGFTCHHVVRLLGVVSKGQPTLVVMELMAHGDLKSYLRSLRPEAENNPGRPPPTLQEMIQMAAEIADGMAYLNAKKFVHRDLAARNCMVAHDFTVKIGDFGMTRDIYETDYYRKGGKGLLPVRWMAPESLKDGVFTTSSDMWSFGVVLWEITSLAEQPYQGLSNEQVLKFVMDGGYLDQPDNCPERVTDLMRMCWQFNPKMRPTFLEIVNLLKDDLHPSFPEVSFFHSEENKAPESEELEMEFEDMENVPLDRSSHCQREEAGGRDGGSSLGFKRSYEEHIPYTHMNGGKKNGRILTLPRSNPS
MLK-3, sequence (Q16584 whole entry): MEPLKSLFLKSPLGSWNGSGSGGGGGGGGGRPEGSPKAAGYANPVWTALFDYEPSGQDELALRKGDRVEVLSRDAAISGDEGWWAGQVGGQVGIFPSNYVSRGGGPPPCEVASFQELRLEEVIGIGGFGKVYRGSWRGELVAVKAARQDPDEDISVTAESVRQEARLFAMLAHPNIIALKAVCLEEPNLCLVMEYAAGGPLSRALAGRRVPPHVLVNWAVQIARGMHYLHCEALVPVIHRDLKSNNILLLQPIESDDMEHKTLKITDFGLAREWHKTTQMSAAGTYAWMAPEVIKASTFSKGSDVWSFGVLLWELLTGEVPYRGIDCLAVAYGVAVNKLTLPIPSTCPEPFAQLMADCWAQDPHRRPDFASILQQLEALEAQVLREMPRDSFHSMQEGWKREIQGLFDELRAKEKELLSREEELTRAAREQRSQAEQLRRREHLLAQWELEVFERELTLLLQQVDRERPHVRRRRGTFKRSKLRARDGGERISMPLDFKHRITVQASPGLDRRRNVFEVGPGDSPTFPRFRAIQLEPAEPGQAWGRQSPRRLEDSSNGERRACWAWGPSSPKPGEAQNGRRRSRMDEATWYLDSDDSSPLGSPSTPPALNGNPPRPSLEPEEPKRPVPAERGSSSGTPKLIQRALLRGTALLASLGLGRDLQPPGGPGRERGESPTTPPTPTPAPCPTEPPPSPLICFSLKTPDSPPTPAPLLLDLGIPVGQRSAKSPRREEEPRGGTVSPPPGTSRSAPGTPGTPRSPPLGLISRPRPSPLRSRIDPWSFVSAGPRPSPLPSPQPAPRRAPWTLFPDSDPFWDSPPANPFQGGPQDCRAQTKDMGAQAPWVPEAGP

Row | SMILES | CNS / blood brain barrier penetration [1] | Protection of the axon field ([2]; test compounds 100 nM, 18 hours) | IC50 (diverse set of kinases [3]; read-out: IC50 ABL1) | IC50 (diverse set of kinases [4]) | IC50 (diverse set of kinases [5]) | IC50 (diverse set of kinases [6]) | IC50 (diverse set of kinases [7]) | Axonogenesis in the presence of Tat-activated microglia ([2]; listed as Compound 68) | Axonogenesis in the presence of Tat-activated microglia ([2]; listed as compound 68) | IC50 (MLK-3) | IC50 (diverse set of kinases [3]) | concentration at 3 h [8]
1 | CCSCc1ccc2c(c1)c1c3c(c4c5cc(CSCC)ccc5n5c4c1n2[C@H]1C[C@](O)(C(=O)OC)[C@]5(C)O1)CNC3=O [CEP-1347] | very poor blood brain barrier penetration; also recorded: poor CNS penetration | – | – | – | – | – | – | – | – | – | – | –
2 | CN1CCN(Cc2ccc(-c3cnc4[nH]cc(-c5ccc6[nH]ccc6c5)c4c3)cc2)CC1 [URMC-099, reference compound] | – | protected the axon field | 0.003 µM | 0.2 µM | 0.591 µM | 1.18 µM | 0.257 µM | – | – | – | – | –
3 | COc1ccc(Nc2ccc3ncc(-c4cc5cccc(OC)c5s4)n3n2)cc1OC [Compound 68, 3-(7-methoxybenzo[b]thiophen-2-yl)-N-(3,4-dimethoxyphenyl)imidazo[1,2-b]pyridazin-6-amine] | – | – | – | > 10 µM | > 10 µM | > 10 µM | > 10 µM | continued axonogenesis | promoted continued axonogenesis | < 0.1 µM | > 10 µM | 1550 ng/g
